Results published in ChEMBL document CHEMBL5104147, “Biocatalytic synthesis and evaluation of antioxidant and antibacterial activities of hydroxyequols” (Bioorg Med Chem Lett, 2022).
pIC50: −log10 of the molar value. In brackets after ≈: the same amount, converted by molar mass.

System: Bacillus subtilis
Test: Antibacterial activity against Bacillus subtilis assessed as inhibition of bacterial growth
Type: functional

Question: Which MIC does the source give for `O=c1c(-c2ccc(O)cc2)coc2cc(O)ccc12` [DAIDZEIN] here?
Answer: Its MIC is > 1020 µg/mL.

Question: With `Oc1ccc([C@H]2COc3cc(O)c(O)cc3C2)cc1` as the compound, how does the MIC read?
Answer: The MIC was 128 µg/mL (≈ 496 µM).

Question: With `Oc1ccc2c(c1)OC[C@H](c1ccc(O)c(O)c1)C2` as the compound, how does the MIC read?
Answer: Its MIC is 256 µg/mL (≈ 991 µM).

Question: Which MIC does the source give for `Oc1ccc([C@H]2COc3cc(O)ccc3C2)cc1` [AUS-131] here?
Answer: The MIC was 64 µg/mL (≈ 264 µM).

Question: Which MIC does the source give for `Oc1ccc([C@H]2COc3cc(O)c(O)cc3C2)cc1O` here?
Answer: Its MIC is 256 µg/mL (≈ 933 µM).

System: not listed separately
Test: Antioxidant activity assessed as trolox equivalent of DPPH radical scavenging activity by DPPH assay relative to trolox
Type: functional

Question: For `Oc1ccc([C@H]2COc3cc(O)c(O)cc3C2)cc1`, which Ratio IC50 is on record?
Answer: Its Ratio IC50 is 1.08.

Question: With `Oc1ccc2c(c1)OC[C@H](c1ccc(O)c(O)c1)C2` as the compound, how does the Ratio IC50 read?
Answer: Its Ratio IC50 is 1.02.

Question: Which Ratio IC50 does the source give for `Oc1ccc([C@H]2COc3cc(O)ccc3C2)cc1` [AUS-131] here?
Answer: The Ratio IC50 was 4.99 10^-3No_unit.

Question: For `Oc1ccc([C@H]2COc3cc(O)c(O)cc3C2)cc1O`, which Ratio IC50 is on record?
Answer: Its Ratio IC50 is 2.28.

System: not listed separately
Test: Antioxidant activity assessed as DPPH radical scavenging activity by DPPH assay
Type: functional

Question: With `Cc1c(C)c2c(c(C)c1O)CCC(C)(C(=O)O)O2` (configuration not stated) [TROLOX] as the compound, how does the pIC50 read?
Answer: The pIC50 was 3.60.

Question: With `Oc1ccc([C@H]2COc3cc(O)c(O)cc3C2)cc1` as the compound, how does the pIC50 read?
Answer: The pIC50 was 3.63.

Question: With `Oc1ccc2c(c1)OC[C@H](c1ccc(O)c(O)c1)C2` as the compound, how does the pIC50 read?
Answer: The pIC50 was 3.60.

Question: With `Oc1ccc([C@H]2COc3cc(O)ccc3C2)cc1` [AUS-131] as the compound, how does the pIC50 read?
Answer: Its pIC50 is 1.28.

Question: With `Oc1ccc([C@H]2COc3cc(O)c(O)cc3C2)cc1O` as the compound, how does the pIC50 read?
Answer: Its pIC50 is 3.95.

System: Bacillus subtilis
Test: Bactericidal activity against Bacillus subtilis assessed as decrease in cell survival
Type: functional

Question: Which MBC does the source give for `Oc1ccc([C@H]2COc3cc(O)c(O)cc3C2)cc1` here?
Answer: Its MBC is 128 µg/mL (≈ 496 µM).

Question: Which MBC does the source give for `Oc1ccc2c(c1)OC[C@H](c1ccc(O)c(O)c1)C2` here?
Answer: Its MBC is 512 µg/mL (≈ 1980 µM).

Question: For `Oc1ccc([C@H]2COc3cc(O)ccc3C2)cc1` [AUS-131], which MBC is on record?
Answer: Its MBC is 256 µg/mL (≈ 1060 µM).

Question: With `Oc1ccc([C@H]2COc3cc(O)c(O)cc3C2)cc1O` as the compound, how does the MBC read?
Answer: Its MBC is 256 µg/mL (≈ 933 µM).

System: Escherichia coli
Test: Antibacterial activity against Escherichia coli assessed as inhibition of bacterial growth
Type: functional

Question: Which MIC does the source give for `O=c1c(-c2ccc(O)cc2)coc2cc(O)ccc12` [DAIDZEIN] here?
Answer: Its MIC is > 1020 µg/mL.

Question: Which MIC does the source give for `Oc1ccc([C@H]2COc3cc(O)c(O)cc3C2)cc1` here?
Answer: The MIC was 64 µg/mL (≈ 248 µM).

Question: Which MIC does the source give for `Oc1ccc2c(c1)OC[C@H](c1ccc(O)c(O)c1)C2` here?
Answer: Its MIC is 512 µg/mL (≈ 1980 µM).

Question: For `Oc1ccc([C@H]2COc3cc(O)ccc3C2)cc1` [AUS-131], which MIC is on record?
Answer: The MIC was 256 µg/mL (≈ 1060 µM).

Question: For `Oc1ccc([C@H]2COc3cc(O)c(O)cc3C2)cc1O`, which MIC is on record?
Answer: The MIC was 128 µg/mL (≈ 467 µM).

System: Escherichia coli
Test: Bactericidal activity against Escherichia coli assessed as decrease in cell survival
Type: functional

Question: For `Oc1ccc([C@H]2COc3cc(O)c(O)cc3C2)cc1`, which MBC is on record?
Answer: The MBC was 64 µg/mL (≈ 248 µM).

Question: With `Oc1ccc2c(c1)OC[C@H](c1ccc(O)c(O)c1)C2` as the compound, how does the MBC read?
Answer: The MBC was 512 µg/mL (≈ 1980 µM).

Question: Which MBC does the source give for `Oc1ccc([C@H]2COc3cc(O)ccc3C2)cc1` [AUS-131] here?
Answer: The MBC was > 1020 µg/mL.

Question: For `Oc1ccc([C@H]2COc3cc(O)c(O)cc3C2)cc1O`, which MBC is on record?
Answer: The MBC was > 1020 µg/mL.
